Measured values from the supplement of paper PMC4862054.

System: MDA-MB-453
Assay: normalised viability (% of control), CellTiter-Blue; higher = more viable cells (about 100 = DMSO control)
Settings: 100 nM; incubation time: 72 h
Outline: (§1)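 Normalised viability is given for a single listed concentration of the series. In 384-well plates, breast cancer cell lines were incubated 72 h with compound, then read with CellTiter-Blue (2 h, 37 °C) at 560/590 nm. Per-plate scaling set vehicle to 100 and a positive kill control to 0, with Z'-factor quality control.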

Compound	normalised viability [%]
Cn1cnc2c(F)c(Nc3ccc(Br)cc3Cl)c(C(=O)NOCCO)cc21 [Selumetinib]	110
Nc1nc2[nH]cnc2c(=S)[nH]1 [Thioguanine]	98.6

System: MDA-MB-468
Assay: as above
Settings: 10 nM; incubation time: 72 h
Outline: as §1

Compound	normalised viability [%]
CC(C)(C)c1cnc(CSc2cnc(NC(=O)C3CCNCC3)s2)o1 [SNS-032]	114
Cn1cnc2c(F)c(Nc3ccc(Br)cc3Cl)c(C(=O)NOCCO)cc21 [Selumetinib]	106
Nc1nc2[nH]cnc2c(=S)[nH]1 [Thioguanine]	104

Same assay, conditions: 1000 nM; incubation time: 72 h

Compound	normalised viability [%]
CC(C)(C)c1cnc(CSc2cnc(NC(=O)C3CCNCC3)s2)o1 [SNS-032]	11.3
Cn1cnc2c(F)c(Nc3ccc(Br)cc3Cl)c(C(=O)NOCCO)cc21 [Selumetinib]	95
Nc1nc2[nH]cnc2c(=S)[nH]1 [Thioguanine]	62.1

Same assay, conditions: 10000 nM; incubation time: 72 h

Compound	normalised viability [%]
CC(C)(C)c1cnc(CSc2cnc(NC(=O)C3CCNCC3)s2)o1 [SNS-032]	5.84
Cn1cnc2c(F)c(Nc3ccc(Br)cc3Cl)c(C(=O)NOCCO)cc21 [Selumetinib]	69.5
Nc1nc2[nH]cnc2c(=S)[nH]1 [Thioguanine]	44.4

System: MFM-223
Assay: as above
Settings: 10 nM; incubation time: 72 h
Outline: as §1

Compound	normalised viability [%]
CC(C)(C)c1cnc(CSc2cnc(NC(=O)C3CCNCC3)s2)o1 [SNS-032]	87.9
Cn1cnc2c(F)c(Nc3ccc(Br)cc3Cl)c(C(=O)NOCCO)cc21 [Selumetinib]	86.2
Nc1nc2[nH]cnc2c(=S)[nH]1 [Thioguanine]	89.4

Same assay, conditions: 1000 nM; incubation time: 72 h

Compound	normalised viability [%]
CC(C)(C)c1cnc(CSc2cnc(NC(=O)C3CCNCC3)s2)o1 [SNS-032]	14.2
Cn1cnc2c(F)c(Nc3ccc(Br)cc3Cl)c(C(=O)NOCCO)cc21 [Selumetinib]	89.7
Nc1nc2[nH]cnc2c(=S)[nH]1 [Thioguanine]	88.6

Same assay, conditions: 10000 nM; incubation time: 72 h

Compound	normalised viability [%]
CC(C)(C)c1cnc(CSc2cnc(NC(=O)C3CCNCC3)s2)o1 [SNS-032]	20
Cn1cnc2c(F)c(Nc3ccc(Br)cc3Cl)c(C(=O)NOCCO)cc21 [Selumetinib]	73.1
Nc1nc2[nH]cnc2c(=S)[nH]1 [Thioguanine]	82.2

System: SK-BR-3
Assay: as above
Settings: 10 nM; incubation time: 72 h
Outline: as §1

Compound	normalised viability [%]
CC(C)(C)c1cnc(CSc2cnc(NC(=O)C3CCNCC3)s2)o1 [SNS-032]	98.4
Cn1cnc2c(F)c(Nc3ccc(Br)cc3Cl)c(C(=O)NOCCO)cc21 [Selumetinib]	98.7
Nc1nc2[nH]cnc2c(=S)[nH]1 [Thioguanine]	99.7

Same assay, conditions: 1000 nM; incubation time: 72 h

Compound	normalised viability [%]
CC(C)(C)c1cnc(CSc2cnc(NC(=O)C3CCNCC3)s2)o1 [SNS-032]	5.34
Cn1cnc2c(F)c(Nc3ccc(Br)cc3Cl)c(C(=O)NOCCO)cc21 [Selumetinib]	114
Nc1nc2[nH]cnc2c(=S)[nH]1 [Thioguanine]	103

Same assay, conditions: 10000 nM; incubation time: 72 h

Compound	normalised viability [%]
CC(C)(C)c1cnc(CSc2cnc(NC(=O)C3CCNCC3)s2)o1 [SNS-032]	4.75
Cn1cnc2c(F)c(Nc3ccc(Br)cc3Cl)c(C(=O)NOCCO)cc21 [Selumetinib]	93.6
Nc1nc2[nH]cnc2c(=S)[nH]1 [Thioguanine]	49.6

System: BT-474
Assay: drug sensitivity score (DSS), CellTox Green (DSS (AUC-based score)); higher = stronger drug effect (viability inhibition or cytotoxicity); extreme values may be limits of the assay
Settings: incubation time: 72 h
Outline: (§2)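 The drug sensitivity score was computed from the area under the fitted dose-response curve. Breast cancer cell lines in 20 µl suspension went into 384-well plates holding compound at 5 concentrations (10-fold steps over a 10,000-fold, compound-specific range) for 72 h of incubation. CellTox Green fluorescence (485/520 nm) was read before CellTiter-Glo luminescence, the latter after 10 min at room temperature, and each plate was normalised to 0.1 % DMSO and a positive kill control.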

Compound	drug sensitivity score
CC(C)(C)c1cnc(CSc2cnc(NC(=O)C3CCNCC3)s2)o1 [SNS-032]	0
Cn1cnc2c(F)c(Nc3ccc(Br)cc3Cl)c(C(=O)NOCCO)cc21 [Selumetinib]	0
Nc1nc2[nH]cnc2c(=S)[nH]1 [Thioguanine]	0

System: BT-549
Assay: as above
Settings: incubation time: 72 h
Outline: as §2

Compound	drug sensitivity score
CC(C)(C)c1cnc(CSc2cnc(NC(=O)C3CCNCC3)s2)o1 [SNS-032]	7.86
Cn1cnc2c(F)c(Nc3ccc(Br)cc3Cl)c(C(=O)NOCCO)cc21 [Selumetinib]	0
Nc1nc2[nH]cnc2c(=S)[nH]1 [Thioguanine]	0

System: CAL-148
Assay: as above
Settings: incubation time: 72 h
Outline: as §2

Compound	drug sensitivity score
CC(C)(C)c1cnc(CSc2cnc(NC(=O)C3CCNCC3)s2)o1 [SNS-032]	0
Cn1cnc2c(F)c(Nc3ccc(Br)cc3Cl)c(C(=O)NOCCO)cc21 [Selumetinib]	0
Nc1nc2[nH]cnc2c(=S)[nH]1 [Thioguanine]	0

System: CAL-51
Assay: as above
Settings: incubation time: 72 h
Outline: as §2

Compound	drug sensitivity score
CC(C)(C)c1cnc(CSc2cnc(NC(=O)C3CCNCC3)s2)o1 [SNS-032]	15.1
Cn1cnc2c(F)c(Nc3ccc(Br)cc3Cl)c(C(=O)NOCCO)cc21 [Selumetinib]	0
Nc1nc2[nH]cnc2c(=S)[nH]1 [Thioguanine]	0

System: CAL-85-1
Assay: as above
Settings: incubation time: 72 h
Outline: as §2

Compound	drug sensitivity score
CC(C)(C)c1cnc(CSc2cnc(NC(=O)C3CCNCC3)s2)o1 [SNS-032]	20.9
Cn1cnc2c(F)c(Nc3ccc(Br)cc3Cl)c(C(=O)NOCCO)cc21 [Selumetinib]	0
Nc1nc2[nH]cnc2c(=S)[nH]1 [Thioguanine]	0

System: DU-4475
Assay: as above
Settings: incubation time: 72 h
Outline: as §2

Compound	drug sensitivity score
CC(C)(C)c1cnc(CSc2cnc(NC(=O)C3CCNCC3)s2)o1 [SNS-032]	0
Cn1cnc2c(F)c(Nc3ccc(Br)cc3Cl)c(C(=O)NOCCO)cc21 [Selumetinib]	8.17
Nc1nc2[nH]cnc2c(=S)[nH]1 [Thioguanine]	0

System: HCC1143
Assay: as above
Settings: incubation time: 72 h
Outline: as §2

Compound	drug sensitivity score
CC(C)(C)c1cnc(CSc2cnc(NC(=O)C3CCNCC3)s2)o1 [SNS-032]	0
Cn1cnc2c(F)c(Nc3ccc(Br)cc3Cl)c(C(=O)NOCCO)cc21 [Selumetinib]	0
Nc1nc2[nH]cnc2c(=S)[nH]1 [Thioguanine]	0

System: HCC1937
Assay: as above
Settings: incubation time: 72 h
Outline: as §2

Compound	drug sensitivity score
CC(C)(C)c1cnc(CSc2cnc(NC(=O)C3CCNCC3)s2)o1 [SNS-032]	0
Cn1cnc2c(F)c(Nc3ccc(Br)cc3Cl)c(C(=O)NOCCO)cc21 [Selumetinib]	0
Nc1nc2[nH]cnc2c(=S)[nH]1 [Thioguanine]	0

System: HDQ-P1
Assay: as above
Settings: incubation time: 72 h
Outline: as §2

Compound	drug sensitivity score
CC(C)(C)c1cnc(CSc2cnc(NC(=O)C3CCNCC3)s2)o1 [SNS-032]	11.4
Cn1cnc2c(F)c(Nc3ccc(Br)cc3Cl)c(C(=O)NOCCO)cc21 [Selumetinib]	2.06
Nc1nc2[nH]cnc2c(=S)[nH]1 [Thioguanine]	0

System: MDA-MB-231
Assay: as above
Settings: incubation time: 72 h
Outline: as §2

Compound	drug sensitivity score
CC(C)(C)c1cnc(CSc2cnc(NC(=O)C3CCNCC3)s2)o1 [SNS-032]	30.8
Cn1cnc2c(F)c(Nc3ccc(Br)cc3Cl)c(C(=O)NOCCO)cc21 [Selumetinib]	13.2
Nc1nc2[nH]cnc2c(=S)[nH]1 [Thioguanine]	0

System: MDA-MB-436
Assay: as above
Settings: incubation time: 72 h
Outline: as §2

Compound	drug sensitivity score
CC(C)(C)c1cnc(CSc2cnc(NC(=O)C3CCNCC3)s2)o1 [SNS-032]	0
Cn1cnc2c(F)c(Nc3ccc(Br)cc3Cl)c(C(=O)NOCCO)cc21 [Selumetinib]	0
Nc1nc2[nH]cnc2c(=S)[nH]1 [Thioguanine]	0

System: MDA-MB-453
Assay: as above
Settings: incubation time: 72 h
Outline: as §2

Compound	drug sensitivity score
CC(C)(C)c1cnc(CSc2cnc(NC(=O)C3CCNCC3)s2)o1 [SNS-032]	0
Cn1cnc2c(F)c(Nc3ccc(Br)cc3Cl)c(C(=O)NOCCO)cc21 [Selumetinib]	0
Nc1nc2[nH]cnc2c(=S)[nH]1 [Thioguanine]	0

System: MDA-MB-468
Assay: as above
Settings: incubation time: 72 h
Outline: as §2

Compound	drug sensitivity score
CC(C)(C)c1cnc(CSc2cnc(NC(=O)C3CCNCC3)s2)o1 [SNS-032]	3.58
Cn1cnc2c(F)c(Nc3ccc(Br)cc3Cl)c(C(=O)NOCCO)cc21 [Selumetinib]	6.94
Nc1nc2[nH]cnc2c(=S)[nH]1 [Thioguanine]	0

System: MFM-223
Assay: as above
Settings: incubation time: 72 h
Outline: as §2

Compound	drug sensitivity score
CC(C)(C)c1cnc(CSc2cnc(NC(=O)C3CCNCC3)s2)o1 [SNS-032]	6.31
Cn1cnc2c(F)c(Nc3ccc(Br)cc3Cl)c(C(=O)NOCCO)cc21 [Selumetinib]	0
Nc1nc2[nH]cnc2c(=S)[nH]1 [Thioguanine]	0
